Tests used:
B16 melanoma cells = experiment: B16 melanoma cell growth in culture (MTT assay); format: cell-based, mouse; conditions: 6 days; FIG. 13C
Method: Data represent mean±SD of triplicate samples. […] Tumor volumes were recorded as indicated. C, Athymic nude mice bearing 4-day-established B16 tumors were subjected to differential treatments as in B. Tumor volumes were recorded as indicated.
L5, L6 and L6 analogs (Chembridge), mouse IFNγ ELISPOT Kit (R & D System) and antibody against pLck-pY394 or pERK1/2 (Cell Signaling) were purchased from commercial sources. Human Jurkat T cell line and murine B16 melanoma cell line (ATCC) and other cancer cell lines were maintained in […] culture medium supplemented with 10% fetal calf serum (FCS). The effects of chemical compounds on cancer cell growth in culture were quantified by MTT assays following our established procedures.

[1] = system: CD3+ and CD3- IFNγ+ splenocytes; experiment: spleno-IFNγ+ cells in B16 tumor mice (CD3/intracellular IFNγ FACS); format: in vivo, mouse; conditions: 1 mg/kg oral, day 22
Method: Splenocytes from mice untreated or treated with L5a2 were stained with appropriate isotype control antibodies or FICT-labeled anti-CD3 monoclonal antibody (BD) plus PE-labeled monoclonal antibody (BD) for intracellular IFNγ following established procedures. The stained samples were washed 3 times, re-suspended in 200 μl of 1% para-formaldehyde solution and analyzed (20,000 cells/sample) using a BD FACS Caliburs cytometer and FlowJoe software.
To gain further insights into the mechanism of action in L5a2 in vivo, spleens were harvested from the B16 tumor mice in the control and the L5a2-treated groups (FIG. 13A) on day 22 to assess whether L5a2 induced IFNγ+ cells in the tumor-bearing mice. It was also determined whether the induced-IFNγ+ cells were of CD3+ T lymphocytes, which were activated TH1 critical for anti-tumor immunity. Splenocytes were prepared and co-stained for intracellular IFNγ and the T cell surface marker CD3 for quantification of IFNγ+ T cells by flow cytometry.

recombinant SHP-1 = target: T1, recombinant SHP-1 (Homo sapiens, UniProt P29350); experiment: rapid in vitro SHP-1 PTPase assay (DIFMUP fluorescence substrate); format: biochemical; conditions: for inhibition of phosphatase activity of recombinant SHP-1: L5 and analogs, 1 μg/well, FIG. 12A
T1 construct: Recombinant protein of SHP-1 PTPase catalytic domain was described
T1 sequence (P29350 244-515 limits assumed): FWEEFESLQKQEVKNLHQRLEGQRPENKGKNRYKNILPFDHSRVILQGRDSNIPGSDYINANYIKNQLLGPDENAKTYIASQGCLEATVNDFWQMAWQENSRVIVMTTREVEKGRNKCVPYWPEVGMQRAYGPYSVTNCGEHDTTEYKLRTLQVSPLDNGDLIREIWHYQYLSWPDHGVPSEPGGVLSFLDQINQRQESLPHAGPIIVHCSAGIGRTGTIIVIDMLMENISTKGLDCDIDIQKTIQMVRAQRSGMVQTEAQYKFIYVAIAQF
Method: Recombinant protein of SHP-1 PTPase catalytic domain was described and stored in Tris buffer (25 mM Tris, pH7.5, 1 mM EDTA, 2 μM 2-ME, 25% glycerol) at −80° C. Fluorescence substrate DIFMUP (6,8-difluoro-4 methylumbelliferyl phosphate) was purchased (Molecular Probes). SSG was reported previously (21-23) and stored at 4° C. in darkness prior to use. Human and mouse IFNγ ELISPOT Kit (R & D System), CD4^+ Cell Intracellular IFNγ Detection Kit (BD Bioscience) and CD8^+ Cell Intracellular IFNγ Detection Kit (BD Bioscience) were purchased from commercial sources. Human Jurkat T cell line (26) and murine B16 melanoma cell line (ATCC) were maintained in […] culture medium supplemented with 10% fetal calf serum (FCS). Antibodies against pLck-pY394 (Cell Signaling), pLck-pY505 (Cell Signaling), pZap70 (pY319, BD Biosciences), pSlp76 (pY128, BD Biosciences) and pLat (pY226, BD Biosciences) were purchased from commercial sources.
A rapid SHP-1 PTPase assay was developed for screening the compounds in a commercial library of 34,000 drug-like small chemicals (Chembridge, Mass.). Briefly, compounds of the library (1 μg/well in […]) were placed in 96-well plates (Falcon, 353072) and mixed with recombinant SHP-1 protein (0.1 μg/well) in […] of HEPES buffer (50 mM HEPS, pH 7.5, 150 mM NaCl, 1 mM EDTA, 0.2 mM DTT and 0.1 mg/ml BSA). The plates were incubated at room temperature for 10 minutes prior to the addition of fluorescence substrate DIFMUP (40 μM stock in HEPES buffer, 10 μl/well) to initiate PTPase reaction. Upon completion of PTPase reaction at room temperature for 1 hr in darkness, fluorescence signal of individual wells were recorded using a Vector^2 Multilabel Counter (Vector, CA). They were compared to that of control SHP-1 PTPase reaction (˜10,000 units of fluorescence signal) in the absence of any compound (100%) for calculating relative SHP-1 inhibition induced by the compounds after subtracting the background signal (˜500 units of fluorescence signal) of the substrate.
To evaluate their SHP-1 inhibitory activity, the analogs (1 μg/well in 0.2 μl DMSO) were aliquot individually to 96-well plates (Falcon, 353072) and mixed with recombinant SHP-1 protein (0.1 μg/well) in 90 μl of HEPES buffer (50 mM HEPS, pH 7.5, 150 mM NaCl, 1 mM EDTA, 0.2 mM DTT and 0.1 mg/ml BSA). The plates were incubated at room temperature for 10 minutes prior to the addition of fluorescence substrate DIFMUP (40 μM stock in HEPES buffer, 10 μl/well) to initiate PTPase reaction. Upon completion of PTPase reaction at room temperature for 1 hr in darkness, fluorescence signal of individual wells were recorded using a Vector^2 Multilabel Counter (Vector, CA). […]

mouse splenocytes = experiment: induction of IFNγ+ cells in mouse splenocytes in vitro (ELISPOT); format: cell-based; conditions: 1 μg/ml; FIG. 11
Method: The splenocytes were cultured in RPMI 1640 medium supplemented with 10% FCS in the absence or presence of designated agents for 16 hrs in flat-bottom 96-well plates coated with a monoclonal antibody specific for mouse IFNγ (mouse IFNγ ELISPOT Kit, R & D System). The plates were then processed for in situ detection of IFNγ+ cells by ELISA following the manufacturer's procedure. Scanning and counting of IFNγ+ cells in the plates were accomplished using an automatic ELISPOT reader with Immunospot2 software (Cellular Technology Ltd). Mouse splenocytes were also untreated or treated with agents for 16 hrs in culture dishes and then stained with appropriate isotype control antibodies or FICT-labeled anti-CD3 monoclonal antibody (BD) plus PE-labeled monoclonal antibody (BD) for intracellular IFNγ following established procedures. The stained samples were washed 3 times, re-suspended in 200 μl of 1% para-formaldehyde solution and analyzed (20,000 cells/sample) using a BD FACS Caliburs cytometer and WinList software.
The splenocytes were cultured in RPMI 1640 medium supplemented with 10% FCS in the absence or presence of designated agents for 16 hrs in flat-bottom 96-well plates coated with a monoclonal antibody specific for mouse IFNγ (mouse IFNγ ELISPOT Kit, R & D System). The plates were then processed for in situ detection of IFNγ+ cells by ELISA following the manufacturer's procedure. Scanning and counting of IFNγ+ cells in the plates were accomplished using an automatic ELISPOT reader with Immunospot2 software (Cellular Technology Ltd).

SHP-2 = target: T2, SHP-2 (Homo sapiens, UniProt Q06124); experiment: SHP-2 inhibition by SSG (applicant's earlier studies); conditions: recombinant and intracellular SHP-2
T2 sequence (Q06124 1-593): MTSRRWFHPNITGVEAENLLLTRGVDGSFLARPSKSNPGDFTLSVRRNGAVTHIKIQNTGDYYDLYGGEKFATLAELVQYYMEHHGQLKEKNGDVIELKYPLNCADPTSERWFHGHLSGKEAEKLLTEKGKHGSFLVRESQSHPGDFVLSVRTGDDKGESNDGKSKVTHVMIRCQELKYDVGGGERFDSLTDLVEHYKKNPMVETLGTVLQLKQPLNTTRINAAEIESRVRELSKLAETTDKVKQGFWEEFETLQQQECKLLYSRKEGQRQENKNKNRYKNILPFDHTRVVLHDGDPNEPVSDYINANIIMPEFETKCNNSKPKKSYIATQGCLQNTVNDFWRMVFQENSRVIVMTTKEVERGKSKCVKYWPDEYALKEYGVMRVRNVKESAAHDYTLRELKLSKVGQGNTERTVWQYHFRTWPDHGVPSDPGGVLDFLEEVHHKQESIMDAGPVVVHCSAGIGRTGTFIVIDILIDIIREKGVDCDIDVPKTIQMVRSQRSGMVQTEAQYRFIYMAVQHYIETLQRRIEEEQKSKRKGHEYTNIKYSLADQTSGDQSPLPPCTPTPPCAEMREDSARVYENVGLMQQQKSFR

intracellular SHP-1 = target: T3, intracellular SHP-1 (Homo sapiens, UniProt P29350); experiment: tyrosine phosphorylation of SHP-1 substrates in Jurkat cells (SDS-PAGE/Western blotting, densitometry); format: cell-based
T3 construct: endogenous in cells; host or cells: Jurkat
Method: (§1) Jurkat cells in culture medium (3×10^6 cells/ml, 1 ml/tube) were treated with agents for designated times at room temperature. After brief centrifuging in a microfuge (4,000 rpm, 2 min), the cell pellet was lysed on ice for 30 min in 1001 of cold lysis buffer (1% NP40, 50 mM Tris, pH 7.4, 150 mM NaCl, 20 mM NaF, 0.2 mM Na3VO4 and 1 mM Na3MO4) containing a cocktail of proteinase inhibitors (Sigma, 1 tablet/10 ml). The lysates were cleared by centrifuging (14,000 rpm, 10 min) in a microfuge at 4° C. to remove insoluble parts, mixed with equal volume of 2×SDS-PAGE sample buffer, boiled for 5 min and analyzed (˜3×10^5 cells/well) by SDS-PAGE/Western blotting. Relative intensities of phosphotyrosine bands were quantified through densitometry analysis.
as §1, with “100 μl” for “1001”, “blotting as described previously (23, 24).” for “blotting.”
as §1, with “100 μl” for “1001”, “blotting as described previously (17, 18).” for “blotting.”

T3 sequence (P29350 whole entry): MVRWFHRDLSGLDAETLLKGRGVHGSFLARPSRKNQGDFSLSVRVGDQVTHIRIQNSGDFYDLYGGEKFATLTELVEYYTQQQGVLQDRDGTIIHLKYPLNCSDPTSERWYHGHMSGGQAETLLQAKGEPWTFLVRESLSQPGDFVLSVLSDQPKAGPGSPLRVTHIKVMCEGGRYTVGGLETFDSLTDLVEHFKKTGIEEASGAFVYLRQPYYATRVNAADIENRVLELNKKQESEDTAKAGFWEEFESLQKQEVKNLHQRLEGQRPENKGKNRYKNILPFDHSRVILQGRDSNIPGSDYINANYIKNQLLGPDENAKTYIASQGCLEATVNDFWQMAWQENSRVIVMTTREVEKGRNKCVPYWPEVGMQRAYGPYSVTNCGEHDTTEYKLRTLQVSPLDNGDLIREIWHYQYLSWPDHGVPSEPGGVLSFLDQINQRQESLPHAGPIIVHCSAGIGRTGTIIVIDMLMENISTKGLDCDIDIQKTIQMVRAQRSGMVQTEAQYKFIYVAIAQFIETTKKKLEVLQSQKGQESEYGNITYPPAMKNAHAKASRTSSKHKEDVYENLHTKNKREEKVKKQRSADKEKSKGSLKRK
Method for B16 melanoma tumors: Tumor volume (n=5) was measured during the study period and calculated using the formula for a prolate spheroid. Student's t test was used for assessing the significance of tumor volume differences among differential treatment groups. Mouse viability (daily) and body weights (weekly) were also recorded during the study period. Major internal organs of the mice were inspected visually upon their termination at the end of the experiment.
To assess anti-tumor activity, C57BL/6J mice (˜8-week old, female, Taconic Farms, Germantown, N.Y.) were inoculated (s. c.) at the flanks with B16 melanoma cells (4×10^4 cells/site). […] Tumor volume (n=5) was measured during the study period and calculated using the formula for a prolate spheroid. Student's t test was used for assessing the significance of tumor volume differences among differential treatment groups. Mouse viability (daily) and body weights (weekly) were also recorded during the study period. Major internal organs of the mice were inspected visually upon their termination at the end of the experiment.

Structure (SMILES) | inhibition of B16 melanoma cells in culture (B16 melanoma cells) | increase of CD3+ IFNγ+ cells [1] [fold] | increase of CD3- IFNγ+ cells [1] [fold] | inhibition of phosphatase activity of recombinant SHP-1 (recombinant SHP-1) | B16 tumor growth inhibition versus control (B16 melanoma tumors; 1 mg/kg/daily, M-F/wk, oral, day 22) [%] | tolerance of treated tumor mice (behavior, gross anatomy) (B16 melanoma tumors; mouse, in vivo) | induction of IFNγ+ cells (mouse splenocytes) [fold] | level at which SHP-1 is inhibited (recombinant SHP-1; recombinant and intracellular SHP-1) [µg/mL] | level at which SHP-2 is inhibited (SHP-2) [µg/mL] | pLck-pY394 induction (intracellular SHP-1; 10 μg/ml, 10 min) [fold] | dose effective in inducing pLck-pY394 (lowest / only effective dose) (intracellular SHP-1; 10 min treatment) [μg/ml] | level active against intracellular SHP-1 (intracellular SHP-1; Jurkat T cells, molar equivalent) [µM] | pLck-pY394 induction (intracellular SHP-1; lower (1 μg/ml) or higher (100 μg/ml) doses)
O=C1C=CC(=O)C(c2cccc(Cl)c2)=C1 [L5a2] | failed to inhibit | ~4.5 | 1.3 | completely or almost completely inhibited | ~75 | no apparent abnormality | ~20 |  |  |  |  |  | 
O.O.O.O.O.O.O.O.O.O=C([O-])[C@@H]1[O][Sb]2([O-])([O][Sb]34([OH])[O][C@H]([C@H](O)CO)[C@H]([O]3)[C@H](C(=O)[O-])[O]4)[O][C@H]([C@H](O)CO)[C@@H]1[O]2.[Na+].[Na+].[Na+] [SSG, Sodium Stibogluconate, reference compound] |  |  |  |  |  |  |  | 10 | 10 | ~2 | 10 | ~14 | failed
O=C1C=C(c2ccccc2)C(=O)c2ccccc21 [L5a3] |  |  |  | ~80% |  |  |  |  |  |  |  |  | 

Reference: patent US7939554B2, “Protein phosphatase inhibitors” (The Cleveland Clinic Foundation, priority 2006, dated 2011)
